{"source": "patent US20100160208A1", "about": "“Pharmaceutical composition” (Antisense Pharma GmbH, priority 2003, published 2010)", "key": {"glioma cell line A-172": {"test_system": "glioma cell line A-172", "experiment": "Cell-mediated cytotoxicity (CARE-LASS) assay, LAK effector cells on A-172 target cells", "type": "cell-based", "conditions": "Seq. Id. No. 30 5 microM", "experimental": "(§1) Cell-mediated cytotoxicity was quantified by the CARE-LASS assay (Lichtenfels et al. 1994) using the NSCLC (non small cell lung carcinoma cell) line NCI-H661, the glioma cell line A-172, and the pancreatic cancer cell line Hup-T3 as target cells. NCI-H661 cells were pretreated with 5 μM TGF (transforming growth factor)-beta 1 specific antisense phosphorothioate oligodeoxynucleotide (PTO) Seq. Id. No. 14. A-172 and Hup-T3 cells were pretreated with 5 μM TGF-beta 2 specific antisense phosphorothioate oligodeoxynucleotide Seq. Id. No. 30 in medium at 5% CO2 and 37° C. for 3 days according to the cell line suppliers' instructions. Additionally, for Hup-T3 cells 3 μg/ml Lipofectin® were used to enhance cellular uptake of the PTO. Untreated cells and cells treated with 3 μg/ml Lipofectin® were used as controls.\nLymphokine activated killer cells (LAK cells) were used as effector cells. LAK cells were generated by a 3 day pretreatment of 5×10^6 PBMC from healthy volunteers with 10 ng/ml rh IL-2 (recombinant human interleukin 2) in 4 ml RPMI 1640 medium supplemented with 10% fetal calf serum at 5% CO2 and 37° C. One part of the effector cells was incubated additionally with rh TGF-[…] to mimic the presence of tumor cells ([…] rh TGF-[…]1 for NCI-H661, […] rh TGF-[…]2 for A-172 and Hup-T3). The other part of cells was incubated without additional treatment.\nEffector cells were incubated with the target cells with and without cytostatic drugs for 4 h. The supraaditive effect respectively the inhibition was calculated by subtracting the specific cell lysis, of the control from the specific cell lysis of the chemotherapeutic agent. Taking into account the sign this difference is summed up with the specific lysis of the inhibitor of TGF-beta, as depicted in the figures. In case the specific lysis of the combination of a chemotherapeutic agent with the TGF-beta inhibitor was higher than this sum, this was interpreted as supraaditive effect. In case the specific lysis of this combination was smaller than the sum this was interpreted as inhibition."}, "[1]": {"test_system": "pancreatic cancer cell line Hup-T3", "experiment": "Cell-mediated cytotoxicity (CARE-LASS) assay, LAK effector cells on Hup-T3 target cells", "type": "cell-based", "conditions": "FIG. 6; effector:target 10:1; Seq. Id. No. 30 5 microM; gemzar 20 μg/ml", "experimental": "Cell-mediated cytotoxicity was quantified by the […] assay (Lichtenfels et al. 1994) using the NSCLC (non small cell lung carcinoma cell) line NCI-H661, the glioma cell line A-172, and the pancreatic cancer cell line Hup-T3 as target cells. […] Id. No. 14. […] Id. […] Additionally, for Hup-T3 cells 3 μg/ml Lipofectin® were used to enhance cellular uptake of the PTO. Untreated cells and cells treated with 3 μg/ml Lipofectin® were used as controls. Lymphokine activated killer cells (LAK cells) were used as effector cells. […] The other part of cells was incubated without additional treatment. Effector cells were incubated with the target cells with and without cytostatic drugs for 4 h. The supraaditive effect respectively the inhibition was calculated by subtracting the specific cell lysis, of the control from the specific cell lysis of the chemotherapeutic agent. Taking into account the sign this difference is summed up with the specific lysis of the inhibitor of TGF-beta, as depicted in the figures. In case the specific lysis of the combination of a chemotherapeutic agent with the TGF-beta inhibitor was higher than this sum, this was interpreted as supraaditive effect. In case the specific lysis of this combination was smaller than the sum this was interpreted as inhibition."}, "[2]": {"test_system": "NSCLC (non small cell lung carcinoma cell) line NCI-H661", "experiment": "Cell-mediated cytotoxicity (CARE-LASS) assay, LAK effector cells on NCI-H661 target cells", "type": "cell-based", "conditions": "FIG. 9; effector:target 1.25:1; Seq. Id. No. 14 5 microM; taxotere 0.37 μg/ml", "experimental": "as §1\nLymphokine activated killer cells (LAK cells) were used as effector cells. LAK cells were generated by a 3 day pretreatment of 5×10^6 PBMC from healthy volunteers with 10 ng/ml rh IL-2 (recombinant human interleukin 2) in 4 ml RPMI 1640 medium supplemented with 10% fetal calf serum at 5% CO2 and 37° C. […]\nEffector cells were incubated with the target cells with and without cytostatic drugs for 4 h. The supraaditive effect respectively the inhibition was calculated by subtracting the specific cell lysis, of the control from the specific cell lysis of the chemotherapeutic agent. […]"}, "[3]": {"test_system": "anaplastic astrocytoma, WHO grade III", "experiment": "Clinical phase I/II study, intratumoral Seq. Id. No. 30 in patients with anaplastic astrocytoma", "type": "in vivo, human", "excerpt": "(§2) Clinical studies represented herein were primarily designed as safety studies and were approved by the local ethic committees and performed in accordance with the current international declaration of Helsinki for human experimentation and GCP and had to sign a written informed consent prior to recruitment.\n(§3) The treatment with the antineoplastic agent followed routine schedules if nothing else is mentioned. Before the treatment with an TGF-beta antagonist, the antisense oligonucleotide of TGF-beta, with Seq. No. 30 the patients were selected according to the following criteria.\n(§4) Patients had high grade gliom, either anaplastic astrocytome, WHO grade III, or glioblastoma, WHO grade IV, refractory to or recurrent after standard therapy (surgery, radiotherapy and different therapies with antineoplastic substances). Patients had not received antineoplastic agents within 10 days prior to the administration of the antagonist. Patients were between 18 and 75 years old. Karnofsky performance status (KPS) was at least 70%. Patients with clinically significant acute infections, cardiovascular abnormalities or poorly controlled seizures and pregnant and lactating females were excluded.\n(§5) Surgical planning was based on computer tomography or magnetic resonance images. The perforated part of the catheter was placed in the solid, enhancing area of the tumor. Ventricles, cysts, resection cavities from prior surgical interventions, blood vessels and eloquent brain areas had to be avoided by the catheter trajectory. The catheter was introduced through a standard burr hole into the center of the largest tumor lesion. The distal end of the catheter was passed several centimetres under the galea through the skin and filled with saline. TGF-beta 2 specific antisense oligonucleotide with Seq. Id. No. 30 was administered intratumorally as a continuous high-flow microperfusion using an external pump system, Graseby 3200 (Smith Medical, London, GBM). The application system was removed after the end of the infusion. For safety assessment patients were followed up for 28 days. Post-study MRI and survival data until death were collected by the investigators.\nComparison of survival data of patients treated with antineoplastic agents in combination with antagonists of factors negatively influencing the immune system (here: an antisense oligonucleotide of TGF-beta with the sequence Id. No. 30) to literature data for treatment with antineoplastic alone. Survival time is given from start of first chemotherapy after tumor recurrence. Median overall survival time of all patients treated with antineoplastic agents and TGF-beta 2 specific antisense oligonucleotide with Seq. Id. No. 30 (anaplastic astrocytom: 8 patients, glioblastoma, 23 patients) are compared to the most current literature data (Theodosopoulos, P. V. et al. 2001).\nReduction of tumor volumes of patients 04 and 17 was more than 80%. Tumor volume was assessed by measurement of the largest cross-sectional diameter of the enhancing lesion in the first layer and the largest cross-sectional diameter perpendicular to the first in the same plane and layer. For the third dimension, the largest cross-sectional diameter of all further planes perpendicular to the first one was determined."}, "[4]": {"test_system": "glioblastoma, WHO grade IV", "experiment": "Clinical phase I/II study, intratumoral Seq. Id. No. 30 in patients with glioblastoma", "type": "in vivo, human", "excerpt": "as §2, §3, §4\nas §5, with “Post-study MRI and survival data until death were collected by the investigators.” left out"}, "[5]": {"conditions": "FIG. 4, effector:target 20:1, BCNU 4 μM"}, "[6]": {"conditions": "FIG. 5, effector:target 1.25:1, CCNU 10 μM"}, "[7]": {"conditions": "FIG. 10, effector:target 5:1, procarbacine 3 nmol/ml"}, "[8]": {"conditions": "FIG. 7, effector:target 10:1, temozolomide 50 μM"}, "[9]": {"conditions": "FIG. 8, effector:target 2.5:1, vincristine 0.04 μmol/ml"}, "[10]": {"conditions": "calculated after start of chemotherapy, patients treated with antineoplastic agents and Seq. Id. No. 30"}, "[11]": {"conditions": "oligonucleotide following chemotherapy (mainly temozolomide)"}}, "data": [{"compound": "O=NN(CCCl)C(=O)NCCCl", "note": "[BCNU, N,N′-bis(2-chlorethyl)-N-nitroso-urea, reference compound]", "values": [{"measurement": "specific lysis of tumor cells", "setting": "glioma cell line A-172; [5]", "value": 15.6, "unit": "%"}]}, {"compound": "O=NN(CCCl)C(=O)NC1CCCCC1", "note": "[CCNU, 1-(2-Chloroethyl)-3-cyclohexyl-1-nitrosourea, reference compound]", "values": [{"measurement": "specific lysis of tumor cells", "setting": "glioma cell line A-172; [6]", "value": 0.5, "unit": "%"}]}, {"compound": "Nc1ccn([C@@H]2O[C@H](CO)[C@@H](O)C2(F)F)c(=O)n1", "note": "[gemzar, reference compound]", "values": [{"measurement": "specific lysis of tumor cells", "setting": "[1]", "value": 34.5, "unit": "%"}]}, {"compound": "CNNCc1ccc(C(=O)NC(C)C)cc1", "note": "[procarbacine, reference compound]", "values": [{"measurement": "specific lysis of tumor cells", "setting": "glioma cell line A-172; [7]", "value": 6.1, "unit": "%"}]}, {"compound": "CC(=O)O[C@@]12CO[C@@H]1C[C@H](O)[C@@]1(C)C(=O)[C@H](O)C3=C(C)[C@@H](OC(=O)[C@H](O)[C@@H](NC(=O)OC(C)(C)C)c4ccccc4)C[C@@](O)([C@@H](OC(=O)c4ccccc4)[C@H]21)C3(C)C", "note": "[taxotere, reference compound]", "values": [{"measurement": "specific lysis of tumor cells", "setting": "[2]", "value": 30.5, "unit": "%"}]}, {"compound": "Cn1nnc2c(C(N)=O)ncn2c1=O", "note": "[temozolomide, 3,4-dihydro-3-methyl-4-oxoimidazo->5,1d′1,2,3,4-tetrazin-8-carboximide, reference compound]", "values": [{"measurement": "specific lysis of tumor cells", "setting": "glioma cell line A-172; [8]", "value": 31.3, "unit": "%"}]}, {"compound": "CC[C@]1(O)C[C@H]2CN(CCc3c([nH]c4ccccc34)[C@@](C(=O)OC)(c3cc4c(cc3OC)N(C=O)[C@H]3[C@@](O)(C(=O)OC)[C@H](OC(C)=O)[C@]5(CC)C=CCN6CC[C@]43[C@@H]65)C2)C1", "note": "[vincristine, reference compound]", "values": [{"measurement": "specific lysis of tumor cells", "setting": "glioma cell line A-172; [9]", "value": 12.6, "unit": "%"}]}, {"compound": "CGGCATGTCTATTTTGTA [Seq. Id. No. 30]", "values": [{"measurement": "tumor response", "setting": "[3]; 1. Example, one patient, 21 months after first application, assessed by 3 independent specialists", "value": "complete response"}, {"measurement": "overall survival after first recurrence", "setting": "[3]; 1. Example, one patient, one cycle 10 μM, 4 μL/min, 1.42 mg in 4 days intratumorally after ACNU/tenoposide, temozolomide, Caelyx", "value": 195, "unit": "weeks"}, {"measurement": "overall survival after diagnosis of anaplastic astrocytoma", "setting": "[3]; 1. Example, one patient, one cycle intratumorally after prior chemotherapy", "value": 208, "unit": "weeks"}, {"measurement": "tumor reduction", "setting": "[3]; 2. Example, one patient, magnetic resonance image 19.4 months after start of oligonucleotide treatment, central reading, partial response", "value": 83, "unit": "%"}, {"measurement": "median overall survival time", "setting": "[3]; FIG. 3, Seq. Id. No. 30 following temozolomide, from start of first chemotherapy after tumor recurrence, 3 patients", "value": 146.6, "unit": "weeks"}, {"measurement": "mean overall survival", "setting": "[3]; all anaplastic astrocytoma patients", "value": 90, "unit": "weeks"}, {"measurement": "median overall survival in our study", "setting": "[3]; [10]", "value": 147, "unit": "weeks"}, {"measurement": "mean overall survival", "setting": "[3]; combination of Seq. Id. No. 30 and at least one further antineoplastic agent (e.g. temozolomide)", "value": 146.6, "unit": "weeks"}, {"measurement": "median overall survival times", "setting": "[3]; [11]", "value": "about 147 weeks"}, {"measurement": "Reduction of tumor volumes", "setting": "[3]; patients 04 and 17", "value": "more than 80%"}, {"measurement": "specific lysis of tumor cells", "setting": "[1]", "value": 59.5, "unit": "%"}, {"measurement": "specific lysis of tumor cells", "setting": "glioma cell line A-172; [5]", "value": 29.4, "unit": "%"}, {"measurement": "specific lysis of tumor cells", "setting": "glioma cell line A-172; [6]", "value": 4.4, "unit": "%"}, {"measurement": "specific lysis of tumor cells", "setting": "glioma cell line A-172; [8]", "value": 39.2, "unit": "%"}, {"measurement": "specific lysis of tumor cells", "setting": "glioma cell line A-172; [9]", "value": 13.9, "unit": "%"}, {"measurement": "median overall survival time", "setting": "[4]; FIG. 3, Seq. Id. No. 30 following temozolomide, from start of first chemotherapy after tumor recurrence, 10 patients", "value": 45.1, "unit": "weeks"}, {"measurement": "median overall survival in our study", "setting": "[4]; [10]", "value": 42.4, "unit": "weeks"}, {"measurement": "median overall survival times", "setting": "[4]; [11]", "value": 45, "unit": "weeks"}]}, {"compound": "CTGATGTGTTGAAGAACA (chemistry not given here) [Seq. Id. No. 14]", "values": [{"measurement": "specific lysis of tumor cells", "setting": "[2]", "value": 65.3, "unit": "%"}, {"measurement": "specific lysis of tumor cells", "setting": "glioma cell line A-172; [7]", "value": 16.4, "unit": "%"}]}]}
